In patent US12065442B2, “Tropomyosin receptor kinase (TRK) degradation compounds and methods of use” (Cullgen (Shanghai), Inc., priority 2018, dated 2024):

These compounds were tested on KM12 cells (assay: Cell viability assay (CellTiter-Glo) in KM12 cells). Conditions: Homo sapiens, 72 h; Table 2; KM12 cell viability, CellTiter-Glo, 3 days; read-out: IC50.
Assay type: cell-based

Compared with `Cc1ncsc1-c1ccc(CNC(=O)[C@@H]2C[C@@H](O)CN2C(=O)[C@@H](NC(=O)CNC(=O)CN2CCN(c3ccc(C(=O)Nc4n[nH]c5ccc(Cc6cc(F)cc(F)c6)cc45)c(NC4CCOCC4)c3)CC2)C(C)(C)C)cc1` [CPD-063, (2S,4R)-1-((S)-2-(2-(2-(4-(4-((5-(3,5-Difluorobenzyl)-1H-indazol-3-yl)carbamoyl)-3-((tetrahydro-2H-pyran-4-yl)amino)phenyl)piperazin-1-yl)acetamido)acetamido)-3,3-dimethylbutanoyl)-4-hydroxy-N-(4-(4-methylthiazol-5-yl)benzyl)pyrrolidine-2-carboxamide], `O=C1CCC(N2C(=O)c3cccc(NCCCCCC(=O)N4CCN(c5ccc(C(=O)Nc6n[nH]c7ccc(Cc8cc(F)cc(F)c8)cc67)c(NC6CCOCC6)c5)CC4)c3C2=O)C(=O)N1` (stereo not shown) [CPD-056, N-(5-(3,5-difluorobenzyl)-1H-indazol-3-yl)-4-(4-(6-((2-(2,6-dioxopiperidin-3-yl)-1,3-dioxoisoindolin-4-yl)amino)hexanoyl)piperazin-1-yl)-2-((tetrahydro-2H-pyran-4-yl)amino)benzamide] is lower in IC50: over 1000 nM for the first, 12 nM for the second. The second is the more potent here.

First: Cc1ncsc1-c1ccc(CNC(=O)[C@@H]2C[C@@H](O)CN2C(=O)[C@@H](NC(=O)CCCCCCCCCC(=O)N2CCN(c3cccc(-c4cnc5ccc(N6CCC[C@@H]6c6cccc(F)c6)nn45)n3)CC2)C(C)(C)C)cc1 [CPD-022, (2S,4R)-1-((S)-2-(11-(4-(6-(6-((R)-2-(3-Fluorophenyl)pyrrolidin-1-yl)imidazo[1,2-b]pyridazin-3-yl)pyridin-2-yl)piperazin-1-yl)-11-oxoundecanamido)-3,3-dimethylbutanoyl)-4-hydroxy-N-(4-(4-methylthiazol-5-yl)benzyl)pyrrolidine-2-carboxamide]
Second: Cc1ncsc1-c1ccc(CNC(=O)[C@@H]2C[C@@H](O)CN2C(=O)[C@@H](NC(=O)COCCOCCOCC(=O)N2CCN(c3cccc(-c4cnc5ccc(N6CCC[C@@H]6c6cccc(F)c6)nn45)n3)CC2)C(C)(C)C)cc1 [CPD-011, (2S,4R)-1-((S)-2-(tert-butyl)-14-(4-(6-(6-((R)-2-(3-Fluorophenyl)pyrrolidin-1-yl)imidazo[1,2-b]pyridazin-3-yl)pyridin-2-yl)piperazin-1-yl)-4,14-dioxo-6,9,12-trioxa-3-azatetradecanoyl)-4-hydroxy-N-(4-(4-methylthiazol-5-yl)benzyl)pyrrolidine-2-carboxamide]
The IC50 of the first is lower: 100 nM for the first, over 1000 nM for the second. The first is the more potent here.

`O=C1CCC(N2C(=O)c3cccc(NCCOCCOCCC(=O)N4CCN(c5cccc(-c6cnc7ccc(N8CCC[C@@H]8c8cccc(F)c8)nn67)n5)CC4)c3C2=O)C(=O)N1` (stereo partly drawn) [CPD-028, 2-(2,6-Dioxopiperidin-3-yl)-4-((2-(2-(3-(4-(6-(6-((R)-2-(3-fluorophenyl)pyrrolidin-1-yl)imidazo[1,2-b]pyridazin-3-yl)pyridin-2-yl)piperazin-1-yl)-3-oxopropoxy)ethoxy)ethyl)amino)isoindoline-1,3-dione] gave an IC50 of 4.3 nM.

Same assay, conditions: Homo sapiens, 72 h; Table 3; KM12 cell viability, CellTiter-Glo, 3 days; read-out: IC50

`O=C1CCC(N2Cc3ccc(NCCN4CCN(c5cccc(-c6cnc7ccc(N8CCC[C@@H]8c8cccc(F)c8)nn67)n5)CC4)cc3C2=O)C(=O)N1` (stereo partly drawn) [TR-196, 3-(6-((2-(4-(6-(6-((R)-2-(3-fluorophenyl)pyrrolidin-1-yl)imidazo[1,2-b]pyridazin-3-yl)pyridin-2-yl)piperazin-1-yl)ethyl)amino)-1-oxoisoindolin-2-yl)piperidine-2,6-dione] and `O=C1CCC(N2Cc3ccc(NCC(=O)N4CCN(c5cccc(-c6cnc7ccc(N8CCC[C@@H]8c8cccc(F)c8)nn67)n5)CC4)cc3C2=O)C(=O)N1` (stereo partly drawn) [TR-189, 3-(6-((2-(4-(6-(6-((R)-2-(3-fluorophenyl)pyrrolidin-1-yl)imidazo[1,2-b]pyridazin-3-yl)pyridin-2-yl)piperazin-1-yl)-2-oxoethyl)amino)-1-oxoisoindolin-2-yl)piperidine-2,6-dione] are within 1.5-fold of each other in IC50: 3.1 nM for the first, 2.5 nM for the second.

First: OC1CCN(c2cc(-c3cccc(-c4cnc5ccc(N6CCC[C@@H]6c6cccc(F)c6)nn45)n3)ccn2)CC1 [GNF-8625, reference compound]
Second: O=C1CCC(N2C(=O)c3ccc(NCCCC(=O)N4CCN(c5cccc(-c6cnc7ccc(N8CCC[C@@H]8c8cccc(F)c8)nn67)n5)CC4)cc3C2=O)C(=O)N1 (stereo partly drawn) [TR-168, 2-(2,6-Dioxopiperidin-3-yl)-5-((4-(4-(6-(6-((R)-2-(3-fluorophenyl)pyrrolidin-1-yl)imidazo[1,2-b]pyridazin-3-yl)pyridin-2-yl)piperazin-1-yl)-4-oxobutyl)amino)isoindoline-1,3-dione]
The IC50 of the first is 16-fold higher: 46.7 nM for the first, 2.9 nM for the second. The second is the more potent here.

`O=C(CN1CCN(c2ccc(C(=O)Nc3n[nH]c4ccc(Cc5cc(F)cc(F)c5)cc34)c(NC3CCOCC3)c2)CC1)NCCCNc1cccc2c1C(=O)N(C1CCC(=O)NC1=O)C2=O` (stereo not shown) [TR-152, N-(5-(3,5-Difluorobenzyl)-1H-indazol-3-yl)-4-(4-(2-((3-((2-(2,6-dioxopiperidin-3-yl)-1,3-dioxoisoindolin-4-yl)amino)propyl)amino)-2-oxoethyl)piperazin-1-yl)-2-((tetrahydro-2H-pyran-4-yl)amino)benzamide] and `O=C(CN1CCN(c2ccc(C(=O)Nc3n[nH]c4ccc(Cc5cc(F)cc(F)c5)cc34)c(NC3CCOCC3)c2)CC1)NCCCCCNc1cccc2c1C(=O)N(C1CCC(=O)NC1=O)C2=O` (stereo not shown) [TR-149, N-(5-(3,5-Difluorobenzyl)-1H-indazol-3-yl)-4-(4-(2-((5-((2-(2,6-dioxopiperidin-3-yl)-1,3-dioxoisoindolin-4-yl)amino)pentyl)amino)-2-oxoethyl)piperazin-1-yl)-2-((tetrahydro-2H-pyran-4-yl)amino)benzamide] are within 1.5-fold of each other in IC50: 3.1 nM for the first, 4.6 nM for the second.

`O=C1CCC(N2C(=O)c3ccc(NCCOCCOCCOCCOCCOCCC(=O)N4CCN(c5cccc(-c6cnc7ccc(N8CCC[C@@H]8c8cccc(F)c8)nn67)n5)CC4)cc3C2=O)C(=O)N1` (stereo partly drawn) [TR-116, 2-(2,6-Dioxopiperidin-3-yl)-5-((18-(4-(6-(6-((R)-2-(3-fluorophenyl)pyrrolidin-1-yl)imidazo[1,2-b]pyridazin-3-yl)pyridin-2-yl)piperazin-1-yl)-18-oxo-3,6,9,12,15-pentaoxaoctadecyl)amino)isoindoline-1,3-dione] and `O=C1CCC(N2C(=O)c3ccc(NCCCC(=O)N4CCN(c5ccc(C(=O)Nc6n[nH]c7ccc(Cc8cc(F)cc(F)c8)cc67)c(NC6CCOCC6)c5)CC4)cc3C2=O)C(=O)N1` (stereo not shown) [TR-169, N-(5-(3,5-Difluorobenzyl)-1H-indazol-3-yl)-4-(4-(4-((2-(2,6-dioxopiperidin-3-yl)-1,3-dioxoisoindolin-5-yl)amino)butanoyl)piperazin-1-yl)-2-((tetrahydro-2H-pyran-4-yl)amino)benzamide] are within 1.5-fold of each other in IC50: 2 nM for the first, 1.6 nM for the second.

Same assay, conditions: Homo sapiens, 72 h; Table 4; KM12 cell viability, CellTiter-Glo, 3 days; read-out: IC50

Compared with `O=C1CCC(n2c(=O)n(CCN3CCN(c4cccc(-c5cnc6ccc(N7CCC[C@@H]7c7cccc(F)c7)cn56)n4)CC3)c3ccccc32)C(=O)N1` (stereo partly drawn) [TR-242, 3-(3-(2-(4-(6-(6-((R)-2-(3-fluorophenyl)pyrrolidin-1-yl)imidazo[1,2-a]pyridin-3-yl)pyridin-2-yl)piperazin-1-yl)ethyl)-2-oxo-2,3-dihydro-1H-benzo[d]imidazol-1-yl)piperidine-2,6-dione], `Cn1c(=O)n(C2CCC(=O)NC2=O)c2ccc(OCCN3CCN(c4cccc(-c5cnc6ccc(N7CCC[C@@H]7c7cccc(F)c7)nn56)n4)CC3)cc21` (stereo partly drawn) [TR-246, 3-(5-(2-(4-(6-(6-((R)-2-(3-fluorophenyl)pyrrolidin-1-yl)imidazo[1,2-b]pyridazin-3-yl)pyridin-2-yl)piperazin-1-yl)ethoxy)-3-methyl-2-oxo-2,3-dihydro-1H-benzo[d]imidazol-1-yl)piperidine-2,6-dione] is lower in IC50: over 500 nM for the first, 101 nM for the second. The second is the more potent here.

First: O=C1CCC(N2C(=O)c3ccc(CN4CC(N5CCN(c6cccc(-c7cnc8ccc(N9CCC[C@@H]9c9cccc(F)c9)nn78)n6)CC5)C4)cc3C2=O)C(=O)N1 (stereo partly drawn) [TR-237, 2-(2,6-dioxopiperidin-3-yl)-5-((3-(4-(6-(6-((R)-2-(3-fluorophenyl)pyrrolidin-1-yl)imidazo[1,2-b]pyridazin-3-yl)pyridin-2-yl)piperazin-1-yl)azetidin-1-yl)methyl)isoindoline-1,3-dione]
Second: Cn1c(=O)n(C2CCC(=O)NC2=O)c2ccc(NCCCN3CCN(c4cccc(-c5cnc6ccc(N7CCC[C@@H]7c7cccc(F)c7)nn56)n4)CC3)cc21 (stereo partly drawn) [TR-221, 3-(5-((3-(4-(6-(6-((R)-2-(3-Fluorophenyl)pyrrolidin-1-yl)imidazo[1,2-b]pyridazin-3-yl)pyridin-2-yl)piperazin-1-yl)propyl)amino)-3-methyl-2-oxo-2,3-dihydro-1H-benzo[d]imidazol-1-yl)piperidine-2,6-dione]
The IC50 of the first is 16-fold higher: 138 nM for the first, 8.5 nM for the second.

With `O=C1CCC(N2C(=O)c3ccc(NCCN4CCN(c5ccc(C(=O)Nc6n[nH]c7ccc(Cc8cc(F)cc(F)c8)cc67)c(NC6CCOCC6)c5)CC4)cc3C2=O)C(=O)N1` (stereo not shown) [TR-232, N-(5-(3,5-Difluorobenzyl)-1H-indazol-3-yl)-4-(4-(2-((2-(2,6-dioxopiperidin-3-yl)-1,3-dioxoisoindolin-5-yl)amino)ethyl)piperazin-1-yl)-2-((tetrahydro-2H-pyran-4-yl)amino)benzamide] the IC50 was 2.6 nM.

Same assay, conditions: Homo sapiens, KM12, 72 h

In the case of `Cn1c(=O)n(C2CCC(=O)NC2=O)c2cccc(CCCCN3CCN(c4cccc(-c5cnc6ccc(N7CCC[C@@H]7c7cccc(F)c7)nn56)n4)CC3)c21` (stereo partly drawn) [TR-241, 3-(4-(4-(4-(6-(6-((R)-2-(3-fluorophenyl)pyrrolidin-1-yl)imidazo[1,2-b]pyridazin-3-yl)pyridin-2-yl)piperazin-1-yl)butyl)-3-methyl-2-oxo-2,3-dihydro-1H-benzo[d]imidazol-1-yl)piperidine-2,6-dione], the IC50 is reported as 9 nM.
